How the values were obtained:
Type in all cases: in vivo, human
[1] = Serum lipids and lipoproteins
Excerpt: Serum lipids were part of the CMP performed at University of California Medical Center (UCDMC) by using the Beckman Coulter DxC800 instrument. Lipoproteins A1 and B were ascertained in EDTA plasma using a Cobas Integra 400 Plus instrument with Roche reagents (Roche Diagnostics Corp., Indianapolis, Ind.). Lipoproteins C2, C3 and E were quantified in serum using a Cobas Integra 400 Plus instrument with Kamiya reagents (Kamiya Biomedical Co., Seattle, Wash.).
(§1) Results are presented as means±SEM.

[2] = Lipoprotein size and sub fraction concentrations by NMR
Procedure: Mean particle size, total number of particles and their number within different subclasses of VLDL, LDL, and HDL, were determined by NMR methods. For this analysis frozen plasma samples were shipped in dry ice by overnight delivery to LipoScience Inc., who performed the analysis.
as §1

[3] = Comprehensive metabolic panel (CMP) on serum
Procedure: CMP performed on serum samples at the chemistry laboratory of University of California Medical Center by using the Beckman Coulter DxC800. GGT and CKMB were determined in the EDTA plasma. GGT activity was determined by using Integra 400 Chemistry Analyzer, Roche Diagnostics. CKMB concentration was determined by using the Multiplex kits from Mesoscale Discovery (Gaithersburg, Md. 20877).
SAS PROC MIXED was used to fit the cross-over model (Littell R C, Milliken G A, Stroup W W, Wolfinger R D, Schabenberger O. SAS System for Mixed Models. Cay, N.C.: SAS Institute Inc.; 2006). Transformations were used when appropriate to stabilize the variances among the diets and periods. The fixed effects were order, diet, the interaction and the covariate; and the random effect was subjects within order. The test for order is a test for carry-over effect. […] Comparisons were made between the values at the end of placebo and LG treatments and using the baseline data as a covariate. Results are presented as means±SEM. Differences were considered statistically significant for P value<0.05.

[4] = Complete blood cell count (hematological parameters); parameters: Monocytes / Eosinophil / Basophils / Platelets / WBC / Neutrophils / Lymphocytes: unit not given here
Procedure: Complete and differential cell counts were performed at the hematology laboratory of University of California Medical Center (UCDMC), Sacramento using Beckman Coulter LH 700.
as §1

[5] = End LG, 500 mg/d, 56 days, n = 10, mean ± SEM
[6] = serum, End LG, 500 mg/d, 56 days, n = 10, mean ± SEM
[7] = plasma, NMR, End LG, 500 mg/d, 56 days, n = 10, mean ± SEM

## CC1(C)O[C@H]2CC(=O)OC[C@]23[C@H]2CC[C@@](C)([C@@H](O[C@@H]4O[C@H](CO)[C@@H](O)[C@H](O)[C@H]4O)c4ccoc4)[C@@]4(O[C@@H]4C(=O)O)[C@]2(C)C(=O)C[C@@H]13 [LG, limonin glucoside]
[1]; [5]
  Lipoprotein A1: 142.91 ± 4.18 mg/dL
  Lipoprotein B: 114.5 ± 6.45 mg/dL
  Lipoprotein C2: 6.21 ± 0.50 mg/dL
  Lipoprotein C3: 13.28 ± 1.05 mg/dL
  Lipoprotein E: 4.91 ± 0.32 mg/dL
[1]; Table 4
  change in plasma concentrations of Apo B: did not find any change
[1]; [6]
  Cholesterol: 231.70 ± 8.83 mg/dL
  HDL-C: 44.20 ± 2.59 mg/dL
  LDL-C (Calc): 159.10 ± 7.37 mg/dL
  Non-HDL-C: 187.50 ± 10.63 mg/dL
  Total-C:HDL-C: 5.47 ± 0.47
  Triglycerides: 142.60 ± 23.64 mg/dL
[1]; vs end of placebo treatment
  effect on serum total-, HDL-, LDL-, non-HDL-cholesterol, triglycerides, lipoproteins A1, B, C2, C3, E: did not alter
[2]; [7]
  Calculated TG total: 150.50 ± 22.84 mg/dL
  Calculated cholesterol total: 208.50 ± 5.45 mg/dL
  HDL cholesterol total: 46.10 ± 2.65 mg/dL
  IDL cholesterol: 8.93 ± 1.83 mg/dL
  IDL particles: 71.80 ± 14.77 nmols/L
  LDL total cholesterol: 137.60 ± 5.14 mg/dL
  Large HDL cholesterol: 20.19 ± 3.24 mg/dL
  Large HDL particles: 6.57 ± 0.99 μmols/L
  Large LDL cholesterol: 67.24 ± 9.75 mg/dL
  Large LDL particles: 495.80 ± 71.47 nmols/L
  Large VLDL & chylomicron TG: 33.01 ± 13.18 mg/dL
  Large VLDL & chylomicron particles: 3.50 ± 1.64 nmol/L
  Mean particle size (HDL particles): 8.86 ± 0.12 nm
  Mean particle size (LDL particles): 20.94 ± 0.26 nm
  Mean particle size (VLDL & chylomicron particles): 48.60 ± 2.25 nm
  Medium HDL cholesterol: 5.87 ± 1.87 mg/dL
  Medium HDL particles: 4.54 ± 1.43 μmols/L
  Medium VLDL & chylomicron particles: 37.70 ± 8.22 nmol/L
  Medium VLDL TG: 53.08 ± 11.93 mg/dL
  Medium small LDL cholesterol: 22.60 ± 3.80 mg/dL
  Medium small LDL particles: 208.40 ± 35.06 nmols/L
  Small HDL cholesterol: 20.03 ± 1.91 mg/dL
  Small HDL particles: 20.25 ± 1.94 μmols/L
  Small LDL cholesterol: 61.47 ± 10.32 mg/dL
  Small VLDL & chylomicron particles: 45.47 ± 5.95 nmol/L
  Small VLDL TG: 20.32 ± 2.64 mg/dL
  Total HDL particles: 31.35 ± 0.95 μmols/L
  Total LDL particle: 1582.80 ± 118.15 nmols/L
  Total VLDL & chylomicron particles: 86.69 ± 13.15 nmol/L
  Total small LDL particles: 1015.20 ± 169.46 nmols/L
  VLDL & chylomicron total TG: 106.50 ± 22.20 mg/dL
  Very small LDL cholesterol: 38.91 ± 6.55 mg/dL
  Very small LDL particles: 806.80 ± 134.82 nmols/L
[2]; vs end of placebo treatment
  effect on mean particle sizes and sub-fraction concentrations of VLDL, LDL, HDL: did not alter
[3]; [6]
  Albumin: 3.95 ± 0.05 g/dL
  Aspartate amino transferase: 23.3 ± 2.22 U/L
  CO2: 29.10 ± 0.48 mEq/L
  Calcium: 9.42 ± 0.06 mg/dL
  Chloride: 104.80 ± 0.81 mEq/L
  Creatinine: 0.84 ± 0.03 mg/dL
  Glucose: 89.7 ± 2.58 mg/dL
  Lactate dehydrogenase: 126.80 ± 8.90 U/L
  Potassium: 4.61 ± 0.12 mEq/L
  Protein: 6.59 ± 0.08 g/dL
  Sodium: 140.80 ± 0.68 mEq/L
  Total bilirubin: 0.81 ± 0.08 mg/dL
  Urea: 11.70 ± 0.92 mg/dL
[3]; vs end of placebo treatment
  effect on circulating concentration of AST: did not significantly decrease
  effect on serum albumin, total protein, glucose, aspartate amino transferase, lactate dehydrogenase, calcium, potassium, sodium, chloride, CO2, creatinine, CKMB, total bilirubin, urea: did not alter
[4]; [5]
  Basophils: 0.03 ± 0.00
  Basophils, % of WBC: 0.47 ± 0.04 % of WBC
  Eosinophil: 0.18 ± 0.03
  Eosinophil, % of WBC: 3.32 ± 0.52 % of WBC
  Hematocrit: 41.47 ± 1.00%
  Hemoglobin: 13.94 ± 0.61 g/dL
  Lymphocytes: 1.80 ± 0.14
  Lymphocytes, % of WBC: 33.01 ± 2.09 % of WBC
  MCH: 31.08 ± 0.39 pico grams
  MCHC: 33.98 ± 0.16%
  MCV: 91.44 ± 1.29 microns
  Monocytes: 0.42 ± 0.03
  Monocytes, % of WBC: 7.79 ± 1.03 % of WBC
  Neutrophils: 3.14 ± 0.30
  Neutrophils, % of WBC: 55.41 ± 3.16 % of WBC
  Platelets: 229.00 ± 12.74
  RBC: 4.54 ± 0.13 × 10^−12/L
  RDW: 13.12 ± 0.13%
  WBC: 5.55 ± 0.38
  pH: 6.75 ± 0.27
[4]; vs end of placebo treatment, baseline as covariate
  effect on hematological variables: did not alter
